Measurements reported in paper PMC9572942, “The Discovery of Small Allosteric and Active Site Inhibitors of the SARS-CoV-2 Main Protease via Structure-Based Virtual Screening and Biological Evaluation” (Molecules, 2022).
Values joined by “and” are separate entries in the source; they are usually repeats but may differ in a detail not shown here. Identical values can stand only once. “Also recorded” adds a separate entry of the source.

Assays:
Type in all cases: biochemical
SARS-CoV-2 M^pro enzyme [1] = biological target: T1, SARS-CoV-2 M^pro enzyme (Severe acute respiratory syndrome coronavirus 2, UniProt P0DTD1); test: FRET-based enzyme assay and IC50 determination; conditions: for inhibition at 100 µM: 100 μM compound, in Figure 5; for inhibition at 200 µM: 200 μM compound; for IC50: 4.6 μM enzyme, HEPES pH 6.5, read-out: IC50
SARS-CoV-2 M^pro enzyme [2] = biological target: T1, SARS-CoV-2 M^pro enzyme; test: Inhibition kinetic study (Lineweaver–Burk, FRET assay); conditions: for inhibition mechanism: Lineweaver–Burk plot; for Ki: from slope of Lineweaver–Burk curves vs. inhibitor concentration, read-out: Ki
SARS-CoV-2 M^pro enzyme [3] = biological target: T1, SARS-CoV-2 M^pro enzyme; test: Promiscuity tests (pre-incubation, 10-fold enzyme concentration, BSA buffer); conditions: 100 μM compound
[4] = 4.6 μM enzyme, read-out: Inhibition % at 100 μM at 4.6 μM enzyme concentration
[5] = 46 μM enzyme (10-fold), read-out: Inhibition % at 100 μM at 46 μM enzyme concentration
[6] = 15 min pre-incubation with enzyme, read-out: Inhibition % at 100 μM with 15 min pre-incubation
[7] = no BSA, read-out: Inhibition % at 100 μM without BSA in assay buffer
[8] = pre-incubation test, read-out: Inhibition % at 100 μM without pre-incubation
[9] = read-out: Inhibition % at 100 μM with BSA in assay buffer, BSA in 20 mM HEPES pH 6.5, read-out: Inhibition % at 100 μM with 1g/mL BSA in assay buffer

O=C(NC1CCNCC1)c1[nH]ncc1NC(=O)c1c(Cl)cccc1Cl [AT7519, reference compound]
inhibition at 100 µM (SARS-CoV-2 M^pro enzyme [1]): 8%
inhibition at 200 µM (SARS-CoV-2 M^pro enzyme [1]): 18%

O=C(CSc1cnc2ccccc2n1)NC1CCCC1 [CB03]
inhibition mechanism (SARS-CoV-2 M^pro enzyme [2]): competitive mechanism
inhibition at 100 µM (SARS-CoV-2 M^pro enzyme [3]; [4]): 15%
inhibition at 100 µM (SARS-CoV-2 M^pro enzyme [3]; [5]): 13.1%
inhibition at 100 µM (SARS-CoV-2 M^pro enzyme [3]; [6]): 14.2%
inhibition at 100 µM (SARS-CoV-2 M^pro enzyme [3]; [7]): 15.5%
inhibition at 100 µM (SARS-CoV-2 M^pro enzyme [3]; [8]): 15.1%
inhibition at 100 µM (SARS-CoV-2 M^pro enzyme [3]; [9]): 17.3%

COC(=O)C1C(O)=C2C(=CC1C)Nc1ccccc1NC2c1ccc2ccccc2c1 (stereo not shown) [CD06]
IC50 (SARS-CoV-2 M^pro enzyme [1]): 226 ± 17.5 µM

CN(CCCO)c1cc2c3c(cccc3n1)C(=O)c1ccccc1-2 [GR04]
IC50 (SARS-CoV-2 M^pro enzyme [1]): 346 ± 10 µM
inhibition at 100 µM (SARS-CoV-2 M^pro enzyme [1]): 35%
inhibition at 200 µM (SARS-CoV-2 M^pro enzyme [1]): 61%
inhibition mechanism (SARS-CoV-2 M^pro enzyme [2]): noncompetitive model; also recorded: noncompetitive inhibition mechanism
Ki (SARS-CoV-2 M^pro enzyme [2]): 298 µM
inhibition at 100 µM (SARS-CoV-2 M^pro enzyme [3]; [4]): 33.5%
inhibition at 100 µM (SARS-CoV-2 M^pro enzyme [3]; [5]): 33.9%
inhibition at 100 µM (SARS-CoV-2 M^pro enzyme [3]; [6]): 34.3%
inhibition at 100 µM (SARS-CoV-2 M^pro enzyme [3]; [7]): 33%
inhibition at 100 µM (SARS-CoV-2 M^pro enzyme [3]; [8]): 35.4%
inhibition at 100 µM (SARS-CoV-2 M^pro enzyme [3]; [9]): 35%

CCCc1nc2c(o1)OC(N)=C(C#N)[C@H]2c1cccc(O)c1 [GR20]
IC50 (SARS-CoV-2 M^pro enzyme [1]): 92 µM and 91.8 µM
inhibition mechanism (SARS-CoV-2 M^pro enzyme [2]): mix inhibition model; also recorded: mixed inhibition mode
Ki (SARS-CoV-2 M^pro enzyme [2]): 89 µM
inhibition at 100 µM (SARS-CoV-2 M^pro enzyme [3]; [4]): 48.6%
inhibition at 100 µM (SARS-CoV-2 M^pro enzyme [3]; [5]): 48%
inhibition at 100 µM (SARS-CoV-2 M^pro enzyme [3]; [7]): 50%
inhibition at 100 µM (SARS-CoV-2 M^pro enzyme [3]; [9]): 51.4%
